# Tested on: Ba/F3 cells expressing empty vector (GFP), CALR wild type or CALR del52
# Experiment: Sensitivity of Ba/F3 cells to the inhibitor SAR302503 (CellTiter-Glo cell viability)
# Assay type: cell-based, murine
# Details: Ba/F3 cells expressing CALR wild type vs CALR del52; 48 hours; 10 ng/ml interleukin-3; dilution series, highest concentration 40 μM; listed as JAK2 kinase inhibitor
# Method: Ba/F3 cells expressing the empty vector (GFP), CALR wild type (CALR wt-GFP) or CALR mutant (CALR del52-GFP) were analyzed by defining cell viability after 48 hours in presence of decreasing SAR302503. For relative viability, relative luminescence units were normalized to the DMSO control. Error bars represent standard error of the mean.
# To define the sensitivity to the inhibitor SAR302503 (Sanofi), Ba/F3 cells were plated in 96-well plates at 25000 cells per well in triplicates on a dilution series of SAR302503 (highest concentration 40 μM) and in presence of 10 ng/ml interleukin-3. After 48 hours cell viability was determined by the CellTiter-Glo® Luminescent Cell Viability Assay (Promega).
smiles,measurement,value
Cc1cnc(Nc2ccc(OCCN3CCCC3)cc2)nc1Nc1cccc(S(=O)(=O)NC(C)(C)C)c1 [SAR302503],sensitivity of cells to SAR302503 (cell viability),suppressed equally
